According to US9586961B2, “Homopiperazine derivatives as protein tyrosine kinase inhibitors and pharmaceutical use thereof” (LEO PHARMA A/S, priority 2010, dated 2017):

Legend:
Assay type in all cases: biochemical
JAK3 = molecular target: T1, JAK3 (Homo sapiens, UniProt P52333); test: JAK3 kinase assay (HTRF, inhibition of phosphorylation of a synthetic peptide); conditions: catalytic domain, His-tag; 2 μM ATP (Km); read-out: JAK3 kinase inhibitory activity (EC50)
T1 construct: All four purified enzymes contain only the catalytic domain; His (N); purchased Carna Biosciences, Inc; host or cells: baculovirus expression system
Summary of the method: (§1)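 HTRF detection (streptavidin-XL665, cryptate anti-phospho antibody, overnight in the dark) after EDTA stop of a 20-30 min RT reaction on 1 μM TK substrate-biotin. Km-level ATP per kinase: 7 μM for JAK1 and 13 μM for TYK2, both N-terminal GST, with 50 nM SEB; 4 μM for JAK2 and 2 μM for JAK3, both His-tagged. Catalytic domains only; DMSO 0.75%.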

JAK2 = molecular target: T2, JAK2 (Homo sapiens, UniProt O60674); test: JAK2 kinase assay (HTRF, inhibition of phosphorylation of a synthetic peptide); conditions: catalytic domain, His-tag; 4 μM ATP (Km); read-out: JAK2 kinase inhibitory activity (EC50)
T2 construct: All four purified enzymes contain only the catalytic domain; His (N); purchased Carna Biosciences, Inc; host or cells: baculovirus expression system
Summary of the method: as §1

JAK1 = molecular target: T3, JAK1 (Homo sapiens, UniProt P23458); test: JAK1 kinase assay (HTRF, inhibition of phosphorylation of a synthetic peptide); conditions: catalytic domain aa 850-1154, GST-tag; 7 μM ATP (Km); read-out: JAK1 kinase inhibitory activity (EC50)
T3 construct: JAK1 (aa 850-1154) and TYK2 (aa 871-1187) are expressed with an N-terminally fused GST-tag; GST (N); purchased Carna Biosciences, Inc; host or cells: baculovirus expression system
Summary of the method: as §1

TYK2 = molecular target: T4, TYK2 (Homo sapiens, UniProt P29597); test: TYK2 kinase assay (HTRF, inhibition of phosphorylation of a synthetic peptide); conditions: catalytic domain aa 871-1187, GST-tag; 13 μM ATP (Km); read-out: TYK2 kinase inhibitory activity (EC50)
T4 construct: JAK1 (aa 850-1154) and TYK2 (aa 871-1187) are expressed with an N-terminally fused GST-tag; GST (N); purchased Carna Biosciences, Inc; host or cells: baculovirus expression system
T4 sequence (P29597 871-1187): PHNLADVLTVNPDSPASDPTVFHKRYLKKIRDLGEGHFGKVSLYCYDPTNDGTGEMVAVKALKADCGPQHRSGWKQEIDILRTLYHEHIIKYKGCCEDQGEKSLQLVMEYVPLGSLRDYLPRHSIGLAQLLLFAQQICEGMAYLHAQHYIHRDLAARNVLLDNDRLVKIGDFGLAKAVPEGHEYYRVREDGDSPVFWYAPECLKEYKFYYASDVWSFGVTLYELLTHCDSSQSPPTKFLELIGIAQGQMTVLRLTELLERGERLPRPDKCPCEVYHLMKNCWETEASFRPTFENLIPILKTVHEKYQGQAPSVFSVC
Description: JAK1, JAK2, JAK3 and TYK2 Kinase Assays:
Human baculovirus-expressed JAK1, 2, 3 and TYK2 were purchased from Carna Biosciences, Inc. All four purified enzymes contain only the catalytic domain. JAK1 (aa 850-1154) and TYK2 (aa 871-1187) are expressed with an N-terminally fused GST-tag, and JAK2 and JAK3 with an N-terminally fused His-tag. Inhibition of phosphorylation of a synthetic peptide was measured in an HTRF-based assay using the TK substrate-Biotin from the CisbioHTRFKinEASE TK kit. First, 2 μl of TK solution (TK substrate-biotin in kinase buffer [1× enzymatic buffer from HTRFKinEASE TK kit, 1 mM DTT]) is added to a plate containing 1 μl prediluted compound (final assay concentration DMSO: 0.75%). Then, 5 μl kinase-ATP mix (prepared in kinase buffer) is added to the wells and the plates are incubated at RT for 20-30 min. For all four kinases a concentration of ATP that corresponded to the Km for ATP was used. The final concentrations of buffers, substrate, kinase and ATP were: JAK1: 50 mMHepes buffer pH 7.0, 0.01% BSA, 10 mM MgCl2, 1 mM DTT, 7 μM ATP, 50 nMSEB, 1 μM TK Substrate-Biotin and 5 ng JAK1; JAK2: 50 mM Hepes buffer pH 7.0, 0.01% BSA, 5 mM MgCl2, 1 mM DTT, 4 μM ATP, 1 μM TK Substrate-Biotin and 0.1 ng JAK2; JAK3: 50 mMHepes buffer pH 7.0, 0.01% BSA, 5 mM MgCl2, 1 mM DTT, 2 μM ATP, 1 μM TK Substrate-Biotin and 0.3 ng JAK3; TYK2: 50 mMHepes buffer pH 7.0, 0.01% BSA, 5 mM MgCl2, 1 mM DTT, 13 μM ATP, 50 nMSEB, 1 μM TK Substrate-Biotin and 0.8 ng TYK2. Thereafter, the kinase reaction is stopped by adding 4 μl detection mix (final concentrations: 50 mM Hepes buffer pH 7.0, 0.01% BSA, 0.8 M KF, 20 mM EDTA, 42 nM Streptavidin-XL665 and 1:400 STKAbCryptate) and the plates are incubated overnight in the dark. The HTRF signal is read using an Envision plate reader.

T3 sequence (P23458 850-1154): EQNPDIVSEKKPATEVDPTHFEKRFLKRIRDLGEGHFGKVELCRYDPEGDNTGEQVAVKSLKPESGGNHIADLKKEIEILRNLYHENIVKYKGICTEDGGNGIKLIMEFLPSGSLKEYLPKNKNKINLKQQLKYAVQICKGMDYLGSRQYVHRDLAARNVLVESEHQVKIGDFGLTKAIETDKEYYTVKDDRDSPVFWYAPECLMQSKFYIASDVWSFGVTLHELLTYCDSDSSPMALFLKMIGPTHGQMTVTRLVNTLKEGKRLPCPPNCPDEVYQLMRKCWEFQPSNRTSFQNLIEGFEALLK
T1 sequence (P52333 822-1111 limits assumed): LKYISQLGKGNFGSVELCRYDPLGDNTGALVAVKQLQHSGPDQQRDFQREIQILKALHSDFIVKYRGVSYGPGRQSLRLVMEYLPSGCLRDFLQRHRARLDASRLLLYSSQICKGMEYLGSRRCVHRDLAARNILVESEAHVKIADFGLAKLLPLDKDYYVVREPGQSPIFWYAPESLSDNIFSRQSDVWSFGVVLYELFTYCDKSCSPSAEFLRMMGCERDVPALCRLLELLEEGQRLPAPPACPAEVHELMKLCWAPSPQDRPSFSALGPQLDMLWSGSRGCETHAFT
T2 sequence (O60674 849-1124 limits assumed): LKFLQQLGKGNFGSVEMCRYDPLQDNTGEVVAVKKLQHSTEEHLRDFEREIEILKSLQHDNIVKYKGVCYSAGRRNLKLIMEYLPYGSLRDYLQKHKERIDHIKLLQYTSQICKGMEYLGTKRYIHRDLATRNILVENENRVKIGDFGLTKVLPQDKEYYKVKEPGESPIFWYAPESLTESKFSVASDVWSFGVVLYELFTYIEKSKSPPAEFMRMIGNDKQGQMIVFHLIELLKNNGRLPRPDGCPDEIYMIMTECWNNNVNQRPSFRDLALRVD

SMILES | EC50 (JAK3) | EC50 (JAK2) | EC50 (JAK1) | EC50 (TYK2)
CNS(=O)(=O)c1csc(C(=O)N2CCN(c3ncnc4[nH]ccc34)CC3(CC3)C2)c1 [Example 28, N-methyl-5-[5-(7H-pyrrolo[2,3-d]pyrimidin-4-yl)-5,8-diazaspiro[2.6]nonane-8-carbonyl]thiophene-3-sulfonamide] | 0.1 to 1 µM | < 0.1 µM | 0.1 to 1 µM | > 1 µM
Cc1cc(C(=O)N2CCN(c3ncnc4[nH]ccc34)CC3(CC3)C2)ccc1S(N)(=O)=O [Example 29, 2-methyl-4-[5-(7H-pyrrolo[2,3-d]pyrimidin-4-yl)-5,8-diazaspiro[2.6]nonane-8-carbonyl]benzenesulfonamide] | 0.1 to 1 µM | 0.1 to 1 µM | 0.1 to 1 µM | > 1 µM
O=C(Cc1cccs1)N1CCN(c2ncnc3[nH]ccc23)CC2(CC2)C1 [Example 30, 1-[5-(7H-pyrrolo[2,3-d]pyrimidin-4-yl)-5,8-diazaspiro[2.6]nonan-8-yl]-2-(2-thienyl)ethanone] | 0.1 to 1 µM | < 0.1 µM | < 0.1 µM | 0.1 to 1 µM
NS(=O)(=O)c1ccc(C(=O)N2CCN(c3ncnc4[nH]ccc34)CC3(CC3)C2)cc1 [Example 31, 4-[5-(7H-pyrrolo[2,3-d]pyrimidin-4-yl)-5,8-diazaspiro[2.6]nonane-8-carbonyl]benzenesulfonamide] | < 0.1 µM | < 0.1 µM | < 0.1 µM | 0.1 to 1 µM
NS(=O)(=O)c1ccc(C(=O)N2CCN(c3ncnc4[nH]ccc34)CC3(CC3)C2)cc1Cl [Example 32, 2-chloro-4-[5-(7H-pyrrolo[2,3-d]pyrimidin-4-yl)-5,8-diazaspiro[2.6]nonane-8-carbonyl]benzenesulfonamide] | 0.1 to 1 µM | 0.1 to 1 µM | < 0.1 µM | > 1 µM
CN(C)S(=O)(=O)c1ccc(C(=O)N2CCN(c3ncnc4[nH]ccc34)CC3(CC3)C2)cc1 [Example 33, N,N-dimethyl-4-[5-(7H-pyrrolo[2,3-d]pyrimidin-4-yl)-5,8-diazaspiro[2.6]nonane-8-carbonyl]benzenesulfonamide] | 0.1 to 1 µM | 0.1 to 1 µM | 0.1 to 1 µM | > 1 µM
NS(=O)(=O)c1ccc(CCC(=O)N2CCN(c3ncnc4[nH]ccc34)CC3(CC3)C2)cc1 [Example 34, 4-[3-oxo-3-[5-(7H-pyrrolo[2,3-d]pyrimidin-4-yl)-5,8-diazaspiro[2.6]nonan-8-yl]propyl]benzenesulfonamide] | < 0.1 µM | < 0.1 µM | < 0.1 µM | 0.1 to 1 µM
Cn1c(C(=O)N2CCN(c3ncnc4[nH]ccc34)CC3(CC3)C2)ccc1S(N)(=O)=O [Example 35, 1-methyl-5-[5-(7H-pyrrolo[2,3-d]pyrimidin-4-yl)-5,8-diazaspiro[2.6]nonane-8-carbonyl]pyrrole-2-sulfonamide] | 0.1 to 1 µM | 0.1 to 1 µM | 0.1 to 1 µM | > 1 µM
Cn1cc(S(N)(=O)=O)cc1C(=O)N1CCN(c2ncnc3[nH]ccc23)CC2(CC2)C1 [Example 36, 1-methyl-5-[5-(7H-pyrrolo[2,3-d]pyrimidin-4-yl)-5,8-diazaspiro[2.6]nonane-8-carbonyl]pyrrole-3-sulfonamide] | 0.1 to 1 µM | 0.1 to 1 µM | 0.1 to 1 µM | > 1 µM
NS(=O)(=O)c1ccc(C(=O)N2CCN(c3ncnc4[nH]ccc34)CC3(CC3)C2)o1 [Example 37, 5-[5-(7H-pyrrolo[2,3-d]pyrimidin-4-yl)-5,8-diazaspiro[2.6]nonane-8-carbonyl]furan-2-sulfonamide] | 0.1 to 1 µM | < 0.1 µM | 0.1 to 1 µM | > 1 µM
Cc1ccc(C(=O)N2CCN(c3ncnc4[nH]ccc34)CC3(CC3)C2)cc1S(N)(=O)=O [Example 38, 2-methyl-5-[5-(7H-pyrrolo[2,3-d]pyrimidin-4-yl)-5,8-diazaspiro[2.6]nonane-8-carbonyl]benzenesulfonamide] | 0.1 to 1 µM | < 0.1 µM | < 0.1 µM | 0.1 to 1 µM
NS(=O)(=O)CCCC(=O)N1CCN(c2ncnc3[nH]ccc23)CC2(CC2)C1 [Example 39, 4-oxo-4-[5-(7H-pyrrolo[2,3-d]pyrimidin-4-yl)-5,8-diazaspiro[2.6]nonan-8-yl]butane-1-sulfonamide] | < 0.1 µM | < 0.1 µM | < 0.1 µM | > 1 µM
N#CC1(C(=O)N2CCN(c3ncnc4[nH]ccc34)CC3(CC3)C2)CCCC1 [Example 40, 1-[5-(7H-pyrrolo[2,3-d]pyrimidin-4-yl)-5,8-diazaspiro[2.6]nonane-8-carbonyl]cyclopentanecarbonitrile] | 0.1 to 1 µM | 0.1 to 1 µM | > 1 µM | > 1 µM
N#CC1(C(=O)N2CCN(c3ncnc4[nH]ccc34)CC3(CC3)C2)CCOCC1 [Example 41, 4-[5-(7H-pyrrolo[2,3-d]pyrimidin-4-yl)-5,8-diazaspiro[2.6]nonane-8-carbonyl]tetrahydropyran-4-carbonitrile] | 0.1 to 1 µM | 0.1 to 1 µM | > 1 µM | > 1 µM
N#Cc1ccc(C(=O)N2CCN(c3ncnc4[nH]ccc34)CC3(CC3)C2)cc1F [Example 42, 2-fluoro-4-[5-(7H-pyrrolo[2,3-d]pyrimidin-4-yl)-5,8-diazaspiro[2.6]nonane-8-carbonyl]benzonitrile] | 0.1 to 1 µM | 0.1 to 1 µM | 0.1 to 1 µM | > 1 µM
COc1cc(OC)cc(C(=O)N2CCN(c3ncnc4[nH]ccc34)CC3(CC3)C2)c1 [Example 43, (3,5-dimethoxyphenyl)-[5-(7H-pyrrolo[2,3-d]pyrimidin-4-yl)-5,8-diazaspiro[2.6]nonan-8-yl]methanone] | > 1 µM | > 1 µM | > 1 µM | > 1 µM
N#CC1(C(=O)N2CCN(c3ncnc4[nH]ccc34)CCC23CC3)CC1 [Example 44, 1-[6-(7H-pyrrolo[2,3-d]pyrimidin-4-yl)-6,9-diazaspiro[2.6]nonane-9-carbonyl]cyclopropanecarbonitrile] | > 1 µM | 0.1 to 1 µM | 0.1 to 1 µM | > 1 µM
O=C(CCC(F)(F)F)N1CCN(c2ncnc3[nH]ccc23)CCC12CC2 [Example 45, 4,4,4-trifluoro-1-[6-(7H-pyrrolo[2,3-d]pyrimidin-4-yl)-6,9-diazaspiro[2.6]nonan-9-yl]butan-1-one] | 0.1 to 1 µM | 0.1 to 1 µM | 0.1 to 1 µM | > 1 µM
O=C(c1cc2ccccc2s1)N1CCN(c2ncnc3[nH]ccc23)CCC12CC2 [Example 46, benzothiophen-2-yl-[6-(7H-pyrrolo[2,3-d]pyrimidin-4-yl)-6,9-diazaspiro[2.6]nonan-9-yl]methanone] | > 1 µM | 0.1 to 1 µM | 0.1 to 1 µM | > 1 µM
N#Cc1cccc(CC(=O)N2CCN(c3ncnc4[nH]ccc34)CCC23CC3)c1 [Example 47, 3-[2-oxo-2-[6-(7H-pyrrolo[2,3-d]pyrimidin-4-yl)-6,9-diazaspiro[2.6]nonan-9-yl]ethyl]benzonitrile] | > 1 µM | > 1 µM | > 1 µM | > 1 µM
